Data published in patent publication US20240082281A1, “ANTI-INFLAMMATORY PHYTONUTRIENTS FOR USE IN THE TREATMENT OR PREVENTION OF SYNOVITIS” (SOCIÉTÉ DES PRODUITS NESTLÉ S.A., priority 2013, published 2024).

Experiments:
[1] = tested on: Dunkin-Hartley guinea pigs; test: Spontaneous osteoarthritis in Dunkin-Hartley guinea pigs: histological OA score and synovial score (OARSI); assay type: in vivo, guinea pig; conditions: in diet 31 weeks (oleuropein 0.025%, rutin 0.5%, curcumin 0.25%); week 35; vs control group; p<0.01
Method: An in vivo study of spontaneous development of osteoarthritis in Dunkin-Hartley guinea pigs was performed. Sixty-five male Dunkin-Hartley guinea-pigs aged 3 weeks were obtained from Charles River Laboratories (Paris). Animals were housed 5 per cage in solid bottom cages and fed with standard guinea-pig diet and water ad libitum. All animals were allowed one week for acclimatization to housing conditions prior to phytonutrients administration. PVC pipes were added to the cages to improve housing conditions and minimize stress.
Substantially purified oleuropein (>90%) was purchased from Extrasynthese (Genay, France). Substantially purified rutin (>94%) was purchased from Sigma-Aldrich (Buchs, Switzerland).
Oleuropein, rutin and curcumin were integrated in the diet. […] Food intake was controlled at W9, W15, W21, W26 and W34 by weighing daily quantities of food added and remaining. […]
Paraffin embedded right knees were cut with a microtome (Leica) in 6 μm sections, in the central area not covered by meniscus, following the Cushin plane, as recommended by OARSI. […] Each compartment of the section (tibial median, tibial lateral, femoral median and femoral lateral) was scored by two blinded trained experts following OARSI recommendation and to assess the global cartilage score, each compartment score was added. […]
The results (mean±SD) were calculated for each parameter. […]

[2] = tested on: PGE2; test: PGE2 in guinea pig serum by competitive ELISA; assay type: in vivo; conditions: in diet 31 weeks; week 35; vs control group
Method: 6 h fasting blood was obtained in the morning, under ketamine/xylazine tranquilization, at the superficial veins at the ears, each 6 weeks: W4 (=TO), W10, W16, W22, W28. At W35, blood was collected by intracardiac puncture just before euthanasia, under general anesthesia.
PGE2 was measured in guinea pig serum using a competitive ELISA kit (Arbor Assays, USA).
The results (mean±SD) were calculated for each parameter. Following a normality test, a parametric ANOVA with Dunnett's post-test or Pearson correlation was performed on all the experiments. *p<0.05; **<0.01; ***p<0.001.

[3] = tested on: ADAMTS-5; test: ADAMTS-5 mRNA expression (real-time PCR, relative to GAPDH) in bovine primary chondrocytes in alginate beads; assay type: cell-based, Bos Taurus; conditions: 1.5 μM each, 3 days
Method: (§1) An in vitro study of bovine primary chondrocytes in alginate beads was performed. Substantially purified oleuropein (>98%) was purchased from Extrasynthese (Genay, France). Substantially purified hydroxytyrosol (>98%) was purchased from Extrasynthese (Genay, France). Substantially purified quercetin (>97%) was purchased from HWI Analytik GmbH (Ruelzheim, Germany).
(§2) The foot of a young cow was washed to remove soil. The skin was removed from the foot. The articulation was opened transversally. Intra articular ligaments were transected. The opened articulation was washed with phosphate buffered saline. With a scalpel blade, full thickness slices of cartilage were dissected out and collected in DMEM high glucose with 10 mM Hepes and 1% Penicillin-Streptomycin. Slices of cartilage were washed in DMEM high glucose with 10 mM Hepes and 1% Penicillin-Streptomycin. […]
(§3) Total RNA was isolated from a pool of 40 beads and isolated using RNeasy kit from Qiagen. cDNA was obtained by reverse transcription of RNA with the Primescript 1st strand cDNA Synthesis kit from Takara. mRNA expression of ADAMTS-5, COX-2, MMP-13 and GAPDH were quantified in real-time PCR (SYBR Green).
(§4) Data were expressed as fold change in gene expression compared to negative control (cells cultured in complete medium).
(§5) Data was expressed as median±S.E.Median (2 experiments of 3 replicates each). […]

[4] = tested on: COX-2; test: COX-2 mRNA expression (real-time PCR, relative to GAPDH) in bovine primary chondrocytes in alginate beads; assay type: cell-based, Bos Taurus; conditions: 1.5 μM each, 3 days
Method: as §1, §2, §3, §4, §5

[5] = tested on: MMP-13; test: MMP-13 mRNA expression (real-time PCR, relative to GAPDH) in bovine primary chondrocytes in alginate beads; assay type: cell-based, Bos Taurus; conditions: 1.5 μM each, 3 days
Method: as §1, §2, §3, §4, §5

[6] = tested on: Primary osteoblasts from the calvaria of newborn Wistar rats; test: Alkaline phosphatase (ALP) activity of primary osteoblasts; assay type: cell-based, rat; conditions: day 15; 1 μM OLP, 1 μM HTy, 10^−9 M 1,25(OH)2D3; vs C−
Method: Alkaline phosphatase activity of osteoblasts and potentiation of effect by vitamin D were investigated. Primary osteoblasts were isolated from the calvaria of newborn Wistar rats by enzymatic digestion as described by […] et al. in 2004. During all experiments, cells were maintained in α-minimal essential medium with 10% heat-inactivated fetal bovine serum and 1% penicillin/streptomycin under conditions of 5% CO2 and 37° C. Cells were seeded on Coll-1-coated 96-well plates at a density of 3500 cells/well or in 24-well plates at a density of 3×10^4 cells/well and cultured for 2 days in α-MEM to reach confluence. Cells were then exposed to different conditions: minimal medium (C-), minimal medium containing 50 μg/ml ascorbic acid, 5 mM β-glycerophosphate (C+; optimized medium), and minimal medium supplemented with 1 μM oleuropein (OLP) and/or 1 μM hydroxytyrosol (HTy) and/or 10^-9 M 1,25 dihydroxivitamin […] dissolved in dimethylsulfoxide (DMSO) and 1,25(OH)2D3 was dissolved in ethanol. […] Enzymatic activity of alkaline phosphatase (ALP) was measured kinetically on Treatment Days 0, 5, 9, 12 and 15. […] Absorbance was measured at 405 nm and 30° C., and every 2 min 30 s for 30 min using a VarioSklan Flash microplate reader. ALP activity was expressed as micromoles of p-NPP per hour per milligram of protein. […] Data were expressed as mean±SEM. […]. […]

[7] = disease conditions (presence of IL1a 10 ng/ml), vs IL1a
[8] = normal conditions (absence of IL1a), vs CTL−

SMILES: COc1cc(/C=C/C(=O)CC(=O)/C=C/c2ccc(O)c(OC)c2)ccc1O [curcumin]
- total OA score (histological cartilage score) [1]: decreasing cartilage degradation and histological OA score
- PGE2 levels in plasma/serum [2]: only non-significant effect

SMILES: O=c1c(O)c(-c2ccc(O)c(O)c2)oc2cc(O)cc(O)c12 [quercetin]
- ADAMTS-5 mRNA expression relative to GAPDH [3, 7]: decrease expression of ADAMTS-5
- ADAMTS-5 mRNA expression relative to GAPDH [3, 8]: decrease expression of ADAMTS-5
- COX-2 mRNA expression relative to GAPDH [4, 7]: decrease expression of COX-2
- COX-2 mRNA expression relative to GAPDH [4, 8]: can reduce expression of COX-2
- MMP-13 mRNA expression relative to GAPDH [5, 7]: decrease expression of MMP-13
- MMP-13 mRNA expression relative to GAPDH [5, 8]: decrease expression of MMP-13

SMILES: C=C1/C(=C\C=C2/CCC[C@]3(C)[C@@H]([C@H](C)CCCC(C)(C)O)CC[C@@H]23)C[C@@H](O)C[C@@H]1O [vitamin D3, 1,25 dihydroxivitamin D3]
- alkaline phosphatase (ALP) activity / osteoblast activity [6]: small but statistically significant increase
